Source: patent US12559454B2, “Benzenesulfonamide derivatives and uses thereof” (2692372 Ontario, Inc., priority 2019, dated 2026)

Tests used:
BTK [1] = target: T1, BTK (Homo sapiens, UniProt Q06187); assay: BTK washout experiment; assay type: biochemical; settings: 400-fold dilution
Protocol: After a 3-h incubation of 40 nM BTK in the presence of 296 nM of compound I-A1, a 400-fold dilution was performed to remove excess inhibitor.
After a 6-h incubation of 50 nM BTK in the presence of 280 nM of compound 3A-6, a 400-fold dilution was performed to remove excess inhibitor.
By way of contrast, a “washout” experiment performed with ARQ-531 gives a very different result, because this compound lacks a warhead and is known to inhibit BTK reversibly. After a 6-h incubation of 50 nM BTK in the presence of 177 nM of ARQ-531, a 400-fold dilution was performed to remove excess inhibitor. […] This indicates to one of ordinary skill in the art that the enzyme was not inhibited irreversibly during the incubation with ARQ-531.

JAK3 = target: T2, JAK3 (Homo sapiens, UniProt P52333); assay: In vitro JAK3 inhibition (no preincubation); assay type: biochemical
T2 sequence (P52333 1-1124): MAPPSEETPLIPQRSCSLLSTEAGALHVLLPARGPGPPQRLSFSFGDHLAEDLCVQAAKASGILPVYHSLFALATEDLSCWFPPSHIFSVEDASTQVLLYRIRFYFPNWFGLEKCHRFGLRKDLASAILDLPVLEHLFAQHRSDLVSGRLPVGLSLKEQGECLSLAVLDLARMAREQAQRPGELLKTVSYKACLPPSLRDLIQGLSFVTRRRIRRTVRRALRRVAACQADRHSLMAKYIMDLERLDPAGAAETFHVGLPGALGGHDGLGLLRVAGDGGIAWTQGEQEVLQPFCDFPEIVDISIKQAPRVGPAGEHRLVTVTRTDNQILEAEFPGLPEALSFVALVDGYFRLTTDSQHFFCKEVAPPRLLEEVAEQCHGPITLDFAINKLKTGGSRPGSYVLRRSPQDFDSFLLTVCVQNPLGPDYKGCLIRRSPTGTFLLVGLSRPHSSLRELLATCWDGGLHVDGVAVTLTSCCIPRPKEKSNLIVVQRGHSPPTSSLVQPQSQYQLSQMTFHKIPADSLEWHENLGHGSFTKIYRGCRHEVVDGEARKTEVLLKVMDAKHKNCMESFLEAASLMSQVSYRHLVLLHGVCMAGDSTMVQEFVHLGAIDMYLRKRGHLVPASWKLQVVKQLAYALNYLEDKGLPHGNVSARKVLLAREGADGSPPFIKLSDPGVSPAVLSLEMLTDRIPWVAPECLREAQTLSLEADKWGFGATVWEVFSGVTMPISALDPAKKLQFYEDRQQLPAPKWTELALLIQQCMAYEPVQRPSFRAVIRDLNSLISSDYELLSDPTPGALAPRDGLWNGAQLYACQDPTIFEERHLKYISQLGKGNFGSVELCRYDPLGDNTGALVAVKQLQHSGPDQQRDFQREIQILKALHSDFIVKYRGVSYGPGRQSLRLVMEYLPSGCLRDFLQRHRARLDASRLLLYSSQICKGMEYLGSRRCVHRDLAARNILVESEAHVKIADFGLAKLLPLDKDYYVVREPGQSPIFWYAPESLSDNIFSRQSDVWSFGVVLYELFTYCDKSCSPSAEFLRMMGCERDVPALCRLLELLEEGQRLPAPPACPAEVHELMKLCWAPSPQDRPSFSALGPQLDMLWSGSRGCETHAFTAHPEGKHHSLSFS
Protocol: In vitro BTK and JAK3 inhibition studies are shown in Table 17 and Table 18 (no preincubation).

BTK [2] = target: T1, BTK; assay: In vitro BTK inhibition (no preincubation); assay type: biochemical
[3] = test system: RL human non-Hodgkin's lymphoma B cell line; assay: Cell viability in RL cells (Table 6); assay type: cell-based
[4] = test system: normal primary human fibroblast (NHF) cell lines; assay: Toxicity study, CellTiter-Blue viability in normal primary human fibroblasts (NHF); assay type: cell-based; settings: NHF cells, 72 hrs exposure
Protocol: Anti-cancer efficacy of exemplary compounds of this application was assessed in vitro in different cancer cell lines. Cell viability was examined following treatment at various concentration of inhibitor (0.097656-50 μM) using a cell Titer-Blue cell viability assay. 1×10^4 cells (NHF cells)/well were plated in 96-well assay plates in culture medium. All cells were grown in DMEM, IMDM and RPMI-1640 supplemented with 10% FBS. After 24 hrs, test compounds and vehicle controls were added to appropriate wells so the final volume was 100p in each well. The cells were cultured for the desired test exposure period (72 hrs) at 37° C. and 5% CO2. The assay plates were removed from 37° C. incubator and 20 μl/well of CellTiter-Blue® Reagent was added. The plates were incubated using standard cell culture conditions for 1-4 hours and the plates were shaken for 10 seconds and record fluorescence at 560/590 nm.
Representative data for exemplary compounds against select normal primary human fibroblast (NHF) cell lines are presented in the following Table 7.

[5] = Parallel artificial membrane permeability assay (PAMPA), Example C4; assay type: in vitro ADME; settings: PBS pH 7.4, 10 μM, 16 hours
Protocol: Assay Procedures. […] 7) Cover with plate lid. Vortex at 750 rpm for 100 seconds. […] Determine the compound concentrations by LC/MS/MS.

BTK (His-tagged protein) = assay: Covalent modification of BTK by mass spectrometry (intact protein); assay type: binding; settings: 10 μM BTK, 50 μM compound, 2 hours, 30° C.
Protocol: After incubation of 10 μM BTK in the presence of 50 μM of compound I-A1 for 2 hours at 30° C., the mass of the modified protein was determined by mass spectrometry. […] After incubation with inhibitor I-A1, the intensity of this had decreased by an order of magnitude, and the most intense peak is consistent with the protein whose mass was increased by 595 Da, corresponding closely to the expected mass of the inhibitor I-A1 (less one fluoride from inhibitor, and one proton from protein, 596 Da).

BTK [6] = target: T1, BTK; assay: BTK irreversible inhibition, enzyme kinetic analysis; assay type: biochemical
Protocol: One of ordinary skill in the art will recognize that this is consistent with the irreversible inhibition of BTK by compound I-A1.
One of ordinary skill in the art will recognize that this is consistent with the irreversible inhibition of BTK by compound I-A6.
One of ordinary skill in the art will recognize that this is consistent with the irreversible inhibition of BTK by compound 3A-2.
The shift of IC50 to a lower value after pre-incubation of the enzyme indicates to one of ordinary skill in the art that a significant portion of the enzyme was inhibited irreversibly during the incubation period.

[7] = test system: RL human non-Hodgkin's lymphoma B cell line; assay: In vitro efficacy in RL cells (Example G1); settings: read-out: RL (IC50, μM)
[8] = test system: normal pooled human fibroblasts; assay: Viability of normal pooled human fibroblasts (Example G1); settings: Fibroblast, read-out: Human Fibroblast (IC50, μM)
BTK [9] = target: T1, BTK; assay: Selected kinase inhibition, BTK (Table 6); assay type: biochemical
[10] = Reactivity profiling with glutathione, LC/MS/MS; assay type: physicochemical; settings: PBS buffer with 5 mM GSH, PBS pH 7.4, 25° C., 5 μM compound
Protocol: The experiment was started by placing 1 μL of 1 mM stocking solution of the test compound in DMSO in 199 μL of PBS buffer at pH 7.4 with 5 mM GSH to reach a final concentration of 5 μM. The final DMSO concentration was 0.5%. The solution was then incubated at 25° C. at 600 rpm, and was quenched with 600 μL solution of acetonitrile at 0, 30, 60 and 120 minutes. The quenched solution was vortexed for 10 minutes and centrifuged for 40 minutes at 3,220 g. An aliquot of 100 μL of the supernatant was diluted by 100 μL ultra-pure water, and the mixture was used for LC/MS/MS analysis. The data was processed and analyzed using Microsoft Excel.

T1 sequence (Q06187 whole entry, species assumed): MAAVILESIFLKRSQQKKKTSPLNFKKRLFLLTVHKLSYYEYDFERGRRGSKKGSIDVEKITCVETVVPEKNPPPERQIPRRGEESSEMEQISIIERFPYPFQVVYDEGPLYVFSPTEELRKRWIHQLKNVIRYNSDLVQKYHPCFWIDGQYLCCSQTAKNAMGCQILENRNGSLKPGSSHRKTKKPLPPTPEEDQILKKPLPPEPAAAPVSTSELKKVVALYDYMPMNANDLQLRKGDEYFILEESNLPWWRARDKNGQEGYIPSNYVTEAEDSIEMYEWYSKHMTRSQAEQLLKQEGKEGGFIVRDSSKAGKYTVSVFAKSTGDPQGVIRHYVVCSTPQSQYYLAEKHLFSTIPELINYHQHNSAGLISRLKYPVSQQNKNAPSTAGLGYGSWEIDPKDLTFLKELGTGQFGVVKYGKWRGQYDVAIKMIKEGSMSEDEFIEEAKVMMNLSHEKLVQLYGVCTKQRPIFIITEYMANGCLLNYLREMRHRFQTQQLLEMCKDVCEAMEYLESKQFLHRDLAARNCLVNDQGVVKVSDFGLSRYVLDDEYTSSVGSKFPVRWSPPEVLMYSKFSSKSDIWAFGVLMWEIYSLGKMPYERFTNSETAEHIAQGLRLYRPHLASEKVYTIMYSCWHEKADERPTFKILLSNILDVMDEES

O=C(c1ccc(Oc2ccccc2)cc1Cl)c1c[nH]c2ncnc(N[C@@H]3CC[C@@H](CO)OC3)c12 [ARQ-531, reference compound]
residual activity of the enzyme (BTK [1]; 6-h incubation, 50 nM BTK, 177 nM compound, relative to DMSO): recovered all of its activity

C[C@H]1CC[C@@H](Nc2ncnc3[nH]ccc23)CN1S(=O)(=O)c1c(F)c(F)c(F)c(F)c1F [Compound 3A-25, N-((3R,6S)-6-methyl-1-((perfluorophenyl)sulfonyl)piperidin-3-yl)-7H-pyrrolo[2,3-d]pyrimidin-4-amine]
IC50 (JAK3): 1000 to 10000 nM

O=S(=O)(NCCNc1ncnc2[nH]ccc12)c1c(F)c(F)c(F)c(F)c1F [Compound 3A-27, N-(2-((7H-pyrrolo[2,3-d]pyrimidin-4-yl)amino)ethyl)-2,3,4,5,6-pentafluorobenzene sulfonamide]
IC50 (JAK3): 1000 to 10000 nM | IC50 (BTK [2]; Table 18): 0.1 to 10 nM

CN(CCNc1ncnc2[nH]ccc12)S(=O)(=O)c1c(F)c(F)c(F)c(F)c1F [Compound 3A-28, N-(2-((7H-pyrrolo[2,3-d]pyrimidin-4-yl)amino)ethyl)-2,3,4,5,6-pentafluoro-N-methylbenzenesulfonamide]
IC50 (JAK3): 1000 to 10000 nM | IC50 (BTK [2]; Table 18): 100 to 1000 nM

Nc1ncnc2c1c(-c1ccc(Oc3ccccc3)cc1)nn2[C@@H]1CCCN(S(=O)(=O)c2c(F)c(F)c(F)c(F)c2F)C1 [I-A1, (R)-1-(1-((perfluorophenyl)sulfonyl)piperidin-3-yl)-3-(4-phenoxyphenyl)-1H-pyrazolo[3,4-d]pyrimidin-4-amine]
IC50 [3]: 1000 to 10000 nM | IC50 [4]: 1000 to 10000 nM | −Log Pe [5]: B (>5 to ≤6) | mass increase of BTK after incubation (BTK (His-tagged protein)): 595 Da | inhibition profile by enzyme kinetic analysis (BTK [6]; 0.1 nM BTK, 500 μM ATP): time-dependent inhibition | inhibition at 0.296 µM (BTK [1]; 3-h incubation, 40 nM BTK, 296 nM compound, read-out: enzyme inhibited irreversibly): > 90% | remaining activity at 0.296 µM (BTK [1]; 3-h incubation, 40 nM BTK, 296 nM compound, relative to DMSO, read-out: residual activity of the enzyme): 7% | IC50 [7]: 1.61 µM | IC50 [8]: 3.98 µM

Nc1ncnc2c1c(-c1ccc(Oc3ccccc3)cc1)nn2[C@H]1CCCN(S(=O)(=O)c2c(F)c(F)c(F)c(F)c2F)C1 [I-A2, (S)-1-(1-((perfluorophenyl)sulfonyl)piperidin-3-yl)-3-(4-phenoxyphenyl)-1H-pyrazolo[3,4-d]pyrimidin-4-amine]
IC50 [3]: 1000 to 10000 nM | IC50 [4]: 1000 to 10000 nM | IC50 (BTK [9]): 100 to 1000 nM

Nc1ncnc2c1c(-c1ccc(Oc3ccccc3)cc1)nn2S(=O)(=O)c1c(F)c(F)c(F)c(F)c1F [I-A3, 1-((perfluorophenyl)sulfonyl)-3-(4-phenoxyphenyl)-1H-pyrazolo[3,4-d]pyrimidin-4-amine]
IC50 [3]: 1000 to 10000 nM | IC50 (BTK [9]): 100 to 1000 nM

Nc1ncnc2c1c(-c1ccc(Oc3ccccc3)cc1)nn2[C@@H]1CCCN(S(=O)(=O)c2cc(F)c(F)c(F)c2F)C1 [I-A4, (R)-3-(4-phenoxyphenyl)-1-(1-((2,3,4,5-tetrafluorophenyl)sulfonyl)piperidin-3-yl)-1H-pyrazolo[3,4-d]pyrimidin-4-amine]
IC50 [4]: > 25000 nM | −Log Pe [5]: B (>5 to ≤6) | IC50 (BTK [9]): 10 to 100 nM

Nc1ncnc2c1c(-c1ccc(Oc3ccccc3)cc1)nn2[C@@H]1CCCN(S(=O)(=O)c2c(F)c(F)cc(F)c2F)C1 [I-A5, (R)-3-(4-phenoxyphenyl)-1-(1-((2,3,5,6-tetrafluorophenyl)sulfonyl)piperidin-3-yl)-1H-pyrazolo[3,4-d]pyrimidin-4-amine]
IC50 [4]: > 25000 nM | −Log Pe [5]: B (>5 to ≤6) | half-life at 5 μM [10]: 6.94 to 20.8 days | inhibition profile by enzyme kinetic analysis (BTK [6]; 0.1 nM BTK, 500 μM ATP): linear enzyme reaction rates | IC50 (BTK [6]; fitting of linear reaction rates to a reversible binding model, read-out: IC50 (reversible binding model)): 334 nM | IC50 (BTK [2]; Table 17): 100 to 1000 nM | IC50 (BTK [9]): 100 to 1000 nM

Nc1ncnc2c1c(-c1ccc(Oc3ccccc3)cc1)nn2[C@@H]1CCCN(S(=O)(=O)c2c(F)c(F)c(F)c(F)c2OC2CC2)C1 [I-A6, (R)-1-(1-((2-cyclopropoxy-3,4,5,6-tetrafluorophenyl)sulfonyl)piperidin-3-yl)-3-(4-phenoxyphenyl)-1H-pyrazolo[3,4-d]pyrimidin-4-amine]
IC50 [4]: > 25000 nM | −Log Pe [5]: C (>6 to ≤7) | inhibition profile by enzyme kinetic analysis (BTK [6]; 0.1 nM BTK, 500 μM ATP): time-dependent inhibition | kinact (BTK [6]; 0.1 nM BTK, 500 μM ATP, saturation kinetics): 0.000671 s⁻¹ | Ki (BTK [6]; 0.1 nM BTK, 500 μM ATP, saturation kinetics of irreversible inhibition): 71.3 nM | IC50 (BTK [2]; Table 17): 100 to 1000 nM | IC50 [7]: 1 µM | IC50 [8]: > 25 µM | IC50 (BTK [9]): 100 to 1000 nM

Nc1ncnc2c1c(-c1ccc(Oc3ccccc3)cc1)nn2[C@@H]1CCCN(S(=O)(=O)c2c(OC3CC3)c(F)c(F)c(F)c2OC2CC2)C1 [I-A7, (R)-1-(1-((2,6-dicyclopropoxy-3,4,5-trifluorophenyl)sulfonyl)piperidin-3-yl)-3-(4-phenoxyphenyl)-1H-pyrazolo[3,4-d]pyrimidin-4-amine]
IC50 [4]: > 25000 nM | −Log Pe [5]: C (>6 to ≤7)

C=CC(=O)N1CCC[C@@H](n2nc(-c3ccc(Oc4ccccc4)cc3)c3c(N)ncnc32)C1 [Ibrutinib, reference compound]
IC50 [3]: 10000 to 30000 nM | IC50 [4]: 10000 to 25000 nM | IC50 [7]: 10.3 µM | IC50 [8]: 26.8 µM
